# Laboratory results: PubChem BioAssay (NCI)
#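 Grown in 96-well plates, cells were treated for 48 hours with each compound at five concentrations. Insufficient inhibition: endpoint recorded as highest concentration tested. Here, GI50 denotes the concentration required for 50% inhibition of growth. Definition used: TGI = concentration required for complete inhibition of growth.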
# What was measured:
# Assay in all cases: growth of human tumour cells (NCI), 48 h
# 786-0 renal = test system: 786-0 renal
# A498 renal = test system: A498 renal
# A549 NSCLC = test system: A549 NSCLC
# ACHN renal = test system: ACHN renal
# BT-549 breast = test system: BT-549 breast
# CAKI-1 renal = test system: CAKI-1 renal
# CCRF-CEM leukemia = test system: CCRF-CEM leukemia
# COLO 205 colon = test system: COLO 205 colon
# DU-145 prostate = test system: DU-145 prostate
# EKVX NSCLC = test system: EKVX NSCLC
# HCC-2998 colon = test system: HCC-2998 colon
# HCT-116 colon = test system: HCT-116 colon
# HCT-15 colon = test system: HCT-15 colon
# HL-60(TB) leukemia = test system: HL-60(TB) leukemia
# HOP-62 NSCLC = test system: HOP-62 NSCLC
# HOP-92 NSCLC = test system: HOP-92 NSCLC
# HS 578T breast = test system: HS 578T breast
# HT29 colon = test system: HT29 colon
# IGROV1 ovarian = test system: IGROV1 ovarian
# K-562 leukemia = test system: K-562 leukemia
# KM12 colon = test system: KM12 colon
# LOX IMVI melanoma = test system: LOX IMVI melanoma
# M14 melanoma = test system: M14 melanoma
# MALME-3M melanoma = test system: MALME-3M melanoma
# MCF7 breast = test system: MCF7 breast
# MDA-MB-231 breast = test system: MDA-MB-231 breast
# MDA-MB-435 = test system: MDA-MB-435
# MOLT-4 leukemia = test system: MOLT-4 leukemia
# NCI-H226 lung = test system: NCI-H226 lung
# NCI-H23 lung = test system: NCI-H23 lung
# NCI-H460 lung = test system: NCI-H460 lung
# NCI/ADR-RES ovarian = test system: NCI/ADR-RES ovarian
# OVCAR-3 ovarian = test system: OVCAR-3 ovarian
# OVCAR-4 ovarian = test system: OVCAR-4 ovarian
# OVCAR-5 ovarian = test system: OVCAR-5 ovarian
# OVCAR-8 ovarian = test system: OVCAR-8 ovarian
# PC-3 prostate = test system: PC-3 prostate
# RPMI-8226 leukemia = test system: RPMI-8226 leukemia
# RXF 393 renal = test system: RXF 393 renal
# SF-268 CNS = test system: SF-268 CNS
# SF-295 CNS = test system: SF-295 CNS
# SF-539 CNS = test system: SF-539 CNS
# SK-MEL-2 melanoma = test system: SK-MEL-2 melanoma
# SK-MEL-28 melanoma = test system: SK-MEL-28 melanoma
# SK-MEL-5 melanoma = test system: SK-MEL-5 melanoma
# SK-OV-3 ovarian = test system: SK-OV-3 ovarian
# SN12C renal = test system: SN12C renal
# SNB-19 CNS = test system: SNB-19 CNS
# SNB-75 CNS = test system: SNB-75 CNS
# SR leukemia = test system: SR leukemia
# SW-620 colon = test system: SW-620 colon
# T-47D breast = test system: T-47D breast
# TK-10 renal = test system: TK-10 renal
# U251 CNS = test system: U251 CNS
# UACC-257 melanoma = test system: UACC-257 melanoma
# UACC-62 melanoma = test system: UACC-62 melanoma
# UO-31 renal = test system: UO-31 renal
structure (smiles),measurement,setting,value
Oc1ccccc1/C=N/Nc1nc(N/N=C/c2ccccc2O)nc(N2CCOCC2)n1,GI50,786-0 renal,0.709 µM
same,TGI,786-0 renal,15.3 µM
same,GI50,A498 renal,1.09 µM
same,TGI,A498 renal,8.58 µM
same,GI50,A549 NSCLC,2.88 µM
same,TGI,A549 NSCLC,52.2 µM
same,GI50,ACHN renal,1.58 µM
same,TGI,ACHN renal,44.9 µM
same,GI50,BT-549 breast,5.19 µM
same,TGI,BT-549 breast,> 100 µM
same,GI50,CAKI-1 renal,4.52 µM
same,TGI,CAKI-1 renal,46.5 µM
same,GI50,CCRF-CEM leukemia,0.537 µM
same,TGI,CCRF-CEM leukemia,> 100 µM
same,GI50,COLO 205 colon,5.53 µM
same,TGI,COLO 205 colon,> 100 µM
same,GI50,DU-145 prostate,6.09 µM
same,TGI,DU-145 prostate,> 100 µM
same,GI50,EKVX NSCLC,3.28 µM
same,TGI,EKVX NSCLC,32 µM
same,GI50,HCC-2998 colon,7.65 µM
same,TGI,HCC-2998 colon,> 100 µM
same,GI50,HCT-116 colon,0.823 µM
same,TGI,HCT-116 colon,> 100 µM
same,GI50,HCT-15 colon,0.241 µM
same,TGI,HCT-15 colon,16.2 µM
same,GI50,HL-60(TB) leukemia,0.193 µM
same,TGI,HL-60(TB) leukemia,> 100 µM
same,GI50,HOP-62 NSCLC,3.51 µM
same,TGI,HOP-62 NSCLC,23 µM
same,GI50,HOP-92 NSCLC,1.65 µM
same,TGI,HOP-92 NSCLC,6.01 µM
same,GI50,HS 578T breast,3.24 µM
same,TGI,HS 578T breast,44.1 µM
same,GI50,HT29 colon,5.89 µM
same,TGI,HT29 colon,> 100 µM
same,GI50,IGROV1 ovarian,0.966 µM
same,TGI,IGROV1 ovarian,> 100 µM
same,GI50,K-562 leukemia,0.683 µM
same,TGI,K-562 leukemia,> 100 µM
same,GI50,KM12 colon,33.2 µM
same,TGI,KM12 colon,> 100 µM
same,GI50,LOX IMVI melanoma,0.276 µM
same,TGI,LOX IMVI melanoma,0.873 µM
same,GI50,M14 melanoma,3.22 µM
same,TGI,M14 melanoma,> 100 µM
same,GI50,MALME-3M melanoma,8.69 µM
same,TGI,MALME-3M melanoma,> 100 µM
same,GI50,MCF7 breast,2.39 µM
same,TGI,MCF7 breast,> 100 µM
same,GI50,MDA-MB-231 breast,2.42 µM
same,TGI,MDA-MB-231 breast,30.9 µM
same,GI50,MDA-MB-435,9.53 µM
same,TGI,MDA-MB-435,> 100 µM
same,GI50,MOLT-4 leukemia,1.55 µM
same,TGI,MOLT-4 leukemia,> 100 µM
same,GI50,NCI-H226 lung,3.92 µM
same,TGI,NCI-H226 lung,20.4 µM
same,GI50,NCI-H23 lung,4.31 µM
same,TGI,NCI-H23 lung,20.1 µM
same,GI50,NCI-H460 lung,2.3 µM
same,TGI,NCI-H460 lung,17.4 µM
same,GI50,NCI/ADR-RES ovarian,0.685 µM
same,TGI,NCI/ADR-RES ovarian,9.37 µM
same,GI50,OVCAR-3 ovarian,3.42 µM
same,TGI,OVCAR-3 ovarian,> 100 µM
same,GI50,OVCAR-4 ovarian,2.48 µM
same,TGI,OVCAR-4 ovarian,7.56 µM
same,GI50,OVCAR-5 ovarian,6.41 µM
same,TGI,OVCAR-5 ovarian,> 100 µM
same,GI50,OVCAR-8 ovarian,3.75 µM
same,TGI,OVCAR-8 ovarian,34.5 µM
same,GI50,PC-3 prostate,3.61 µM
same,TGI,PC-3 prostate,> 100 µM
same,GI50,RPMI-8226 leukemia,2.78 µM
same,TGI,RPMI-8226 leukemia,> 100 µM
same,GI50,RXF 393 renal,0.272 µM
same,TGI,RXF 393 renal,2.45 µM
same,GI50,SF-268 CNS,16.9 µM
same,TGI,SF-268 CNS,> 100 µM
same,GI50,SF-295 CNS,7.67 µM
same,TGI,SF-295 CNS,> 100 µM
same,GI50,SF-539 CNS,7.29 µM
same,TGI,SF-539 CNS,> 100 µM
same,GI50,SK-MEL-2 melanoma,6.06 µM
same,TGI,SK-MEL-2 melanoma,> 100 µM
same,GI50,SK-MEL-28 melanoma,3.2 µM
same,TGI,SK-MEL-28 melanoma,49.9 µM
same,GI50,SK-MEL-5 melanoma,5.86 µM
same,TGI,SK-MEL-5 melanoma,> 100 µM
same,GI50,SK-OV-3 ovarian,3.7 µM
same,TGI,SK-OV-3 ovarian,13.8 µM
same,GI50,SN12C renal,18.3 µM
same,TGI,SN12C renal,> 100 µM
same,GI50,SNB-19 CNS,3.14 µM
same,TGI,SNB-19 CNS,14.9 µM
same,GI50,SNB-75 CNS,1.82 µM
same,TGI,SNB-75 CNS,5.26 µM
same,GI50,SR leukemia,0.322 µM
same,TGI,SR leukemia,> 100 µM
same,GI50,SW-620 colon,1.78 µM
same,TGI,SW-620 colon,23.4 µM
same,GI50,T-47D breast,3.34 µM
same,TGI,T-47D breast,> 100 µM
same,GI50,TK-10 renal,44.9 µM
same,TGI,TK-10 renal,> 100 µM
same,GI50,U251 CNS,3.06 µM
same,TGI,U251 CNS,22.3 µM
same,GI50,UACC-257 melanoma,6.53 µM
same,TGI,UACC-257 melanoma,> 100 µM
same,GI50,UACC-62 melanoma,24.5 µM
same,TGI,UACC-62 melanoma,> 100 µM
same,GI50,UO-31 renal,0.372 µM
same,TGI,UO-31 renal,18.7 µM
